The target of one test is T1, MAO-B (Homo sapiens, UniProt P27338).
T1 sequence (P27338 1-520): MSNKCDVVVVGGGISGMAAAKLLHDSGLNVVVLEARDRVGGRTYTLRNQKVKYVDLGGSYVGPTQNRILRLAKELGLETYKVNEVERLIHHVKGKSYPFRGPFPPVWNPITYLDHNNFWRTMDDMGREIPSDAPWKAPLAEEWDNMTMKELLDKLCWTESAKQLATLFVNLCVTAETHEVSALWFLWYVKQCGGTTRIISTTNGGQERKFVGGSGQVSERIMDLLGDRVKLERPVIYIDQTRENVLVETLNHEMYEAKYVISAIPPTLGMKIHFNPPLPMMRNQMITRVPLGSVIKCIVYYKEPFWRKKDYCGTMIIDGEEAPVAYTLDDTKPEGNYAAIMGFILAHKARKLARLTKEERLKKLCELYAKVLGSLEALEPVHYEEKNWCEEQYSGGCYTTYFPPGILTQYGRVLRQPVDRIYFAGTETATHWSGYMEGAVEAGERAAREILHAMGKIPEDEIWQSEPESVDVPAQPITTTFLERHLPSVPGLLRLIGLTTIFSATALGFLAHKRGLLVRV
Briefly: HRP/Amplex red based MAO-B enzyme activity assay. Format: biochemical. As to conditions: read-out: IC50, MAO-B assay, HRP/AR method. As for the experimental part: MAO-A or MAO-B enzyme solutions were prepared by diluting 10 µL of a 2.5 mg/mL MAO-A or MAO-B stock into 10 mL of 50 mM sodium phosphate buffer (pH 7.4). A substrate assay mixture was then prepared by combining benzylamine (for MAO-B) or tyramine (for MAO-A) from a 100 mM stock (200 µL in 10 mL phosphate buffer, final concentration 1 mM) with 100 µL of a 20 mM AR reagent stock (final concentration 0.1 mM) and 100 µL of a 200 U/mL HRP stock (final concentration 1 U/mL) in 10 mL phosphate buffer. […] Next, 50 µL of the substrate assay mixture was added, and the reaction was carried out at 37 °C for 60 min. The production of resorufin was quantified by fluorescence measurement (excitation at 540 nm and emission at 580 nm).

The target in a further test is T2, PON2 (Mus musculus, UniProt Q62086).
T2 construct: we infected a primary cultured cortical astrocytes with AAV-CMV-αsyn-A53T virus; endogenous in cells; host or cells: primary cultured cortical astrocytes infected with AAV-CMV-αsyn-A53T
Briefly: PON2 activity assay (esterase and lactonase) in A53T-infected astrocytes. Format: cell-based. To be noted: primary cultured astrocytes infected with A53T virus, Vuti 24 h. As for the experimental part: To assess PON2 activity following Vuti treatment, we infected a primary cultured cortical astrocytes with AAV-CMV-αsyn-A53T virus. Five days post-infection, we treated the cells with Vuti for 24 h and conducted esterase and lactonase assays. For the esterase activity evaluation, reactions were initiated by adding 1 mM p-nitrophenyl acetate (pNPA) to the PON2 activity assay buffer. Enzymatic hydrolysis was monitored by measuring the absorbance at 412 nm. For lactonase activity, the reactions were initiated with 1 mM thio-butyrolactone (TBBL) and 1 mM 5,5’-dithiobis(2-nitrobenzoic acid) (DTNB) in the PON2 activity assay buffer, with absorbance measured at 420 nm to monitor enzymatic hydrolysis.

Test [1] concerns primary cultured astrocytes. Briefly: Intracellular H2O2 (oROS-G sensor) in 6-OHDA-treated astrocytes. Format: cell-based. As for the experimental part:
Intracellular H2O2 levels in astrocytes were measured using a genetically encoded oROS-G plasmid, which is highly sensitive and specific for H2O2 with rapid on-and-off kinetics. The plasmid was generously provided by Dr. Andre Berndt and was cloned under the GFAP104 promoter. Transfection into primary cultured hippocampal astrocytes was carried out using the NeoNTM transfection system (Invitrogen). Astrocytes were seeded into 96-well black plates (ibidi, USA) and treated with 6-OHDA (10 µM) in the presence of 1, 10, and 30 µM of Vuti. Fluorescence changes were monitored using a Nikon A1 confocal microscope over a period of 21 h for live cell imaging. The fluorescence intensity for each region of interest (ROI) was analyzed using Nikon software, and the data were normalized to control values for the IC50. The IC50 value for Vuti was determined using GraphPad Prism software.

The target of test [2] is T3, PON2 in mouse brain tissue (Mus musculus, UniProt Q62086).
T3 construct: Brain tissue pieces were pulverized under frozen conditions in a mortar with liquid nitrogen; from tissue; host or cells: brain tissue of mice dosed orally with vehicle or Vuti for 5 days
Briefly: Cellular thermal shift assay (CESTA) of PON2 in brain tissue. Format: binding. The protocol: Interaction of PON2 and Vuti in mouse brain tissue was evaluated by Cellular Thermal Shift Assay (CESTA®) in vivo [65] (Pelago Bioscience AB, Solna, Sweden). Briefly, mice were orally administered vehicle or Vuti at 50 mg/kg (Vuti 50) or 100 mg/kg (Vuti 100) for 5 days. Brain tissue pieces were pulverized under frozen conditions in a mortar with liquid nitrogen. Equal amounts of tissue powder were placed into 8 or 12 separate PCR strip tubes for each set of the treated tissues and kept frozen until heat challenged. Pre-heated 60 µl HBSS buffer was added to the tubes and samples were immediately subjected to an 8 or 12-step heat challenge for 3 min between 37 °C and 59 °C. Samples were then snap-frozen in liquid nitrogen and lysed by freeze-thawing. After the first round of freeze thawing 1% Brij 35 was added to the samples and the samples were incubated with shaking for 20 min at 4 °C before the two last rounds of freeze thawing. After centrifugation at 20 000 x g for 20 min, 35 µl of the supernatant was mixed with 17,5 µl gel loading buffer (NuPAGE LDS sample buffer, Thermo Fisher Scientific, Waltham, MA, USA). Total protein lysate (6 µg) was separated on 12% SDS-PAGE gels. […] Western Blot detected PON2 protein (abcam, ab183718) normalized to SOD-1, a temperature stable protein band observed in the full protein gel detection with house-keeping gene.

T3 sequence (Q62086 whole entry): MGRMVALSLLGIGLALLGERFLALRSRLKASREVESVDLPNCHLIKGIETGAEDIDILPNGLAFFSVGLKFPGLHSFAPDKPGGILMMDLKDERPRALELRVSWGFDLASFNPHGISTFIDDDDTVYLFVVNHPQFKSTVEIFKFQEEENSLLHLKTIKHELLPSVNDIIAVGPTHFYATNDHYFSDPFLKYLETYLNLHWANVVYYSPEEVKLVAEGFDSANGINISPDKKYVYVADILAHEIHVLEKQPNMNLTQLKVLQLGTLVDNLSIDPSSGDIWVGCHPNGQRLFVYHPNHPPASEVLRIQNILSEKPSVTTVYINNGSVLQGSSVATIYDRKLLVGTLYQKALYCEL

Turning to `CCOc1ccc(C2COc3c(ccc4c3CCC(C)(C)O4)C2)c(O)c1` (stereo not drawn) [Vuti, Vutiglabridin], the IC50 came to 425 µM on MAO-B and 21 µM in test [1] (Astrocyte, 6-OHDA 10 µM treated primary cultured astrocytes, Vuti 1, 10, 30 µM, read-out: normalized IC50 (ROS, oROS-G sensor imaging)). For the same compound, the “PON2 esterase and lactonase activities” value on PON2 is “increased”. Also, the “ROS levels in 6-OHDA-treated astrocytes” value in test [1] (30 µM Vuti) is recorded as “significantly reduced ROS levels”. Moreover, the “increase of the Tm of PON2 over vehicle group” value in test [2] (Vuti 50 mg/kg for 5 days (Vuti 50)) was “approximately 1.3 °C”; in test [2] (Vuti 100 mg/kg for 5 days (Vuti 100)) it was approximately 1.4 °C.

For the origin of these results see publication PMC12535076, “Neurotherapeutic effects of Vutiglabridin as a Paraoxonase-2 modulator in preclinical models of Parkinson’s disease” (Molecular Neurodegeneration, 2025).
